The results in this text go back to the METLIN SMRT retention time set (Domingo-Almenara et al. 2019).

Molecules are shown by their SMILES.

The nature of this data set: gradient 5% acetonitrile 3 min, to 50% in 2 min, to 85% in 15 min, held 3 min, 100 µL/min. The note with it: column: Zorbax Extend-C18 2.1 x 50 mm; eluents: water / acetonitrile, 0.1% formic acid. Summed up:
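Mixtures of ~100 pure standards were chromatographed on a Zorbax Extend-C18 column (2.1 × 50 mm, 1.8 μm) at 100 μL/min using water and acetonitrile, each with 0.1% formic acid. Detection used a quadrupole time-of-flight mass spectrometer in positive and negative ionization mode, and data collection spanned 3 months. Retention time was obtained from adduct peaks picked computationally and each checked manually.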
In the case of `O=C(Cn1c(=O)nc(NC2CCCC2)c2ccccc21)Nc1cc(F)cc(F)c1`, the RP-LC retention time was determined as 767 s.

In turn, `O=C(O)/C=C\C(=O)Nc1nccs1` had an RP-LC retention time of 646 s.

For the compound `CCCNC(=O)C1CCCN(c2ccc(SCC(=O)Nc3ccc(OC)cc3)nn2)C1` (centres undefined), the RP-LC retention time was determined as 647 s.

Take `Cc1cccc(N2CCN(C(=O)C3=CCN(Cc4ccccc4)CC3)CC2)c1`: the RP-LC retention time amounted to 681 s.

Turning to `CSc1ccc(-c2nc3ncccn3c2Nc2cc(C)ccc2C)cc1`, the RP-LC retention time was found to be 864 s.

Compound `CCCn1cc(CCNC(=O)c2cncc(Br)c2)c2cccnc21` showed an RP-LC retention time of 723 s.

In the case of `O=C(CN1CCN(Cc2ccc(F)cc2Cl)C1=O)NCC1CCCCC1`, the RP-LC retention time worked out at 927 s.

In turn, `CCc1ccccc1-n1c(-c2ccc(Cl)cc2)cn2c3c(=O)n(C)c(=O)n(C)c3nc12` yielded an RP-LC retention time of 1110 s.

On to `CCOCC(=O)N1CCCC1CCc1ncc(C)n1C(C)C` (centres undefined), for which the RP-LC retention time turned out to be 574 s.

In turn, `Cc1nc(-c2ccc3c(c2)n(CC(=O)NCc2ccc4c(c2)OCO4)c(=O)n3C(C)C)no1` displayed an RP-LC retention time of 619 s.

`COc1ccccc1-c1noc(C2CCCN2C(=O)Nc2ccccc2)n1` (centres undefined) showed an RP-LC retention time of 848 s.

As to `CN1C(=O)c2[nH]nc(-c3ccc(F)cc3)c2C1c1cccc(O)c1` (centres undefined), the RP-LC retention time came out at 687 s.

`COc1cc(O)ccc1-c1nc2cc(C)ccn2c1Nc1ccccc1C`: the RP-LC retention time came out at 673 s.

`Fc1cccc(CN2CCC(N3CC(OCC4CC4)C34CCCCC4)CC2)c1` (centres undefined) displayed an RP-LC retention time of 588 s.

In turn, `Cn1cccc1CN(C(=O)c1ccc(F)cc1Cl)C1CC1` had an RP-LC retention time of 915 s.

As for `COC(=O)c1ccc(C(=O)NCC2CCN(S(=O)(=O)C3CC3)CC2)cc1`, the RP-LC retention time stood at 732 s.

Consider `COc1ccc(NC(=O)Cn2nc3cc(-c4ccccc4)nc(C)n3c2=O)cc1OC`, for which the RP-LC retention time is 830 s.

The compound `C=CCn1c2ccccc2c2nnc(SCC(=O)Nc3nc(-c4ccccc4)cs3)nc21` had an RP-LC retention time of 1050 s.

In the case of `O=C(NC1CC1)C1CCN(c2ncccc2-c2nc(-c3ccc(Cl)cc3)no2)CC1`, the RP-LC retention time was 970 s.

As for `COc1ccc(N2CC(c3nc4ccccc4n3CCN3CCOCC3)CC2=O)cc1` (centres undefined), the RP-LC retention time stood at 600 s.

With `O=C1NCCCCCCN(C(=O)c2cn[nH]c2)[C@H]2CCC[C@@H]12`, the RP-LC retention time was 625 s.

Take `CC(=O)NCc1csc(C2CCCN(C(=O)c3cc(F)ccc3F)C2)n1` (centres undefined): the RP-LC retention time turned out to be 667 s.

Consider `CCn1c(C(=O)N2CCN(c3ccc(F)cc3)CC2)cc2c(-c3cccs3)nn(-c3ccccc3)c21`, for which the RP-LC retention time is 1220 s.

In turn, `COc1ccc(-c2ncc3c(n2)CCN(C(=O)Nc2ccc(Cl)cc2)C3)cc1` registered an RP-LC retention time of 978 s.

Turning to `CCOc1ccc(N2CCn3c2nc2c3c(=O)n(CC(=O)O)c(=O)n2C)cc1`, the RP-LC retention time is 689 s.

For `Cc1cc(C)cc(NC(=O)Cc2cn(C)c3ncccc23)c1`, the RP-LC retention time turned out to be 689 s.

For the compound `COc1ccc(-c2cc(-c3ccccc3)nc3c2CC(=O)Nc2ccccc2-3)cc1OC`, the RP-LC retention time came to 1100 s.

With `COc1ccc(CN2C(=O)CC(c3ccc(OC)c(OC)c3)CC2=O)cc1`, the RP-LC retention time came to 879 s.

As to `COc1ccc(C2CC(=O)N(c3cccc(Br)c3)C(=O)C2)cc1OC`, the RP-LC retention time is 876 s.

For `CCOC(=O)C1CCC(CNC(=O)N2CCCn3nc(-c4cccnc4)cc3C2)CC1` (centres undefined), the RP-LC retention time was 629 s.

In turn, `Cc1cccc(C)c1NC(=O)Cn1c(=O)nc(N2CCC(C)CC2)c2ccccc21` gave an RP-LC retention time of 819 s.

Consider `CCn1cnc(S(=O)(=O)N2CCC(C(=O)N3CCN(c4cc(Cl)ccc4C)CC3)CC2)c1`, for which the RP-LC retention time was 916 s.

`Cc1oc(C2CCN(C(=O)Nc3ccc(F)cc3)CC2)nc1C(=O)N1CCOCC1` showed an RP-LC retention time of 686 s.

The compound `CCOC(=O)N1CCC(NC(=O)CCc2cc3cc(OC)ccc3[nH]c2=O)CC1` came in with an RP-LC retention time of 663 s.

Consider `COc1ccccc1-c1noc(C2CCCN2C(=O)Nc2cccc(C)c2C)n1` (centres undefined), for which the RP-LC retention time is 858 s.

Turning to `O=C(NCc1ccc(Cl)cc1)C1CCN(c2cnc3nccnc3c2)CC1`, the RP-LC retention time is 713 s.

Compound `Cc1csc(-c2cc(S(=O)(=O)NC(C)C)cn2CC(=O)N2CCCC2)n1` yielded an RP-LC retention time of 769 s.

On to `c1ccc(CNc2c(-c3ccc4c(c3)OCCO4)nc3ncccn23)cc1`, for which the RP-LC retention time turned out to be 710 s.

`C/C(=N\Nc1nc2ccccc2s1)c1ccncn1`: the RP-LC retention time was determined as 895 s.

`CC(NC(=O)Cn1cnc2cc3c(cc21)OCCO3)c1ccc2c(c1)OCCCO2` (centres undefined) displayed an RP-LC retention time of 646 s.

Take `CC(=O)Nc1cccc2c(C(=O)N3CCN(c4ccccc4Cl)CC3)ccnc12`: the RP-LC retention time was determined as 946 s.

As for `COc1ccc(CNC(=O)C2CCCN(c3nnc4ccc(Cl)cn34)C2)cc1` (centres undefined), the RP-LC retention time was determined as 657 s.

In turn, `COc1ccc(NC(=O)c2cn(-c3cc(N4CCCCC4)ncn3)cn2)cc1Cl` had an RP-LC retention time of 984 s.

With `CCOC(=O)c1ccc(NC(=O)c2cc3c(=O)n(C)c4ccccc4n3n2)cc1`, the RP-LC retention time came to 981 s.

`Cc1cc(N2CCN(S(=O)(=O)c3ccc(F)c(F)c3)CC2)nc(N2CCCCC2)n1` came in with an RP-LC retention time of 775 s.

`O=c1n(CC2CC2)nc2n1CCC(NS(=O)(=O)c1ccccc1)CC2` (centres undefined) showed an RP-LC retention time of 706 s.

Regarding `Cc1ccc(CNC(=O)C(C)n2nc(C)c3c(C)n(-c4ccccc4)nc3c2=O)o1` (centres undefined), the RP-LC retention time was found to be 736 s.

Compound `CCOc1ccc(S(=O)(=O)N2CCC(C(=O)NCc3ccncc3)CC2)cc1C` displayed an RP-LC retention time of 662 s.

In turn, `O=C1NCN(c2ccccc2)C12CCN(CC1COc3ccccc3O1)CC2` (centres undefined) showed an RP-LC retention time of 736 s.

Take `COc1ccccc1NC(=O)N1CCC(n2cnc3c(Cl)cccc3c2=O)CC1`: the RP-LC retention time turned out to be 830 s.

The compound `Cc1ccc(CNC(=O)C2CCN(S(=O)(=O)c3ccc4c(c3)NC(=O)C(C)O4)CC2)cc1` (centres undefined) showed an RP-LC retention time of 824 s.

With `Cc1noc2nc(CCC(=O)NCc3ccc(Cl)cc3)nc(N3CCOCC3)c12`, the RP-LC retention time was 740 s.

With `COCCCNC(=O)Cn1ccc2c(SCc3ccccc3)nccc21`, the RP-LC retention time was determined as 636 s.

With `CC(C)c1ccc(NC(=O)Cn2cnc3nc(N4CCC(C(=O)NC5CC5)CC4)sc3c2=O)cc1`, the RP-LC retention time turned out to be 748 s.

On to `Cn1nc2n(c1=O)CCN(C(=O)c1cscn1)CC2`, for which the RP-LC retention time came to 560 s.

`O=C(NC1CCCCCC1)c1nc(Nc2ccccc2)c2ccccc2n1` had an RP-LC retention time of 917 s.

Turning to `Cc1ccccc1Cn1nc2ccc(S(=O)(=O)N3CCCCCC3)cn2c1=O`, the RP-LC retention time was found to be 1020 s.

As to `CC(C)n1c(N2CCN(C(=O)c3ccnn3C)CC2)cc(=O)n(C(C)C)c1=O`, the RP-LC retention time was 725 s.

With `CC(C)NC(=O)C1CCCN(c2nc3ncn(CC(=O)Nc4ccc5c(c4)CCC5)c(=O)c3s2)C1` (centres undefined), the RP-LC retention time was 709 s.

The compound `CC(=O)c1ccc(NC(=O)Cn2c(N3CCc4ccccc4C3)nc(C)cc2=O)cc1` registered an RP-LC retention time of 727 s.

`Cc1cc(C)c(NS(=O)(=O)c2cc(-c3cc(C(F)(F)F)on3)sc2C)c(C)c1` gave an RP-LC retention time of 1230 s.

`Cc1nc(-c2ccc(Cl)cc2)sc1C(=O)N1CCN(c2ncccn2)CC1` displayed an RP-LC retention time of 961 s.

The compound `CCC1CN2C=NC(N3CCN(C(=O)Nc4ccc(OC)c(Cl)c4)CC3)=CC2=N1` (centres undefined) returned an RP-LC retention time of 807 s.

`CN(C)C(=O)c1ccc(N2CCc3ccccc32)s1` yielded an RP-LC retention time of 907 s.

`Cc1cccc(-c2nc(C3CCN(C(=O)C(NC(=O)c4ccco4)C(C)C)CC3)no2)c1` (centres undefined) came in with an RP-LC retention time of 1010 s.

Consider `COc1ccc2nc(NC(=O)Cc3csc4nc(-c5ccccc5)cn34)sc2c1`, for which the RP-LC retention time was found to be 810 s.

`Cc1nnc(C2CCCN(C(=O)COc3ccccc3)C2)s1` (centres undefined): the RP-LC retention time was 653 s.

Compound `COc1ccc(NC(=O)C2CCN(S(=O)(=O)c3ccc4[nH]c(=O)ccc4c3)CC2)c(OC)c1` came in with an RP-LC retention time of 663 s.

Compound `O=C(c1ccccc1Br)N1CCN(c2cc(-c3ccc(Cl)cc3)[nH]n2)CC1` came in with an RP-LC retention time of 913 s.

Take `Cc1ccc(N(C)S(=O)(=O)c2c(C)sc(C)c2-c2cc(C(F)(F)F)on2)cc1C`: the RP-LC retention time came out at 1370 s.

Regarding `CC(C)Cn1c(=O)c(C(=O)NCc2cccc(F)c2)nc2cccnc21`, the RP-LC retention time is 609 s.

The compound `COc1cc(Cl)ccc1-c1nc(-c2cccc(-c3ccn[nH]3)c2)no1` showed an RP-LC retention time of 1060 s.

As for `Cn1ccc(CN2CCc3ccccc32)cc1=O`, the RP-LC retention time is 788 s.

Compound `Cc1ccc(/C=N/NC(=O)c2ccccc2Oc2ccccc2)o1` displayed an RP-LC retention time of 854 s.

In turn, `COCCNc1c(-c2ccccc2)nc2sc(C(=O)NC(C)C)c(C)n12` showed an RP-LC retention time of 749 s.

`Cc1ccc(NC(=O)C2CCCN(C(=O)C3Sc4ccccc4NC3=O)C2)c(C)c1` (centres undefined) returned an RP-LC retention time of 762 s.

In turn, `CCCN(C)C(=O)c1ccc(-c2nnc3ccc(NC(=O)C4CCC4)cn23)cc1` gave an RP-LC retention time of 760 s.

`Cc1noc(-c2cccc(OC3CN(C(=O)NCCc4ccccc4)C3)c2)n1` gave an RP-LC retention time of 879 s.

`Cn1cc(-c2ccncc2)cc1C(=O)NCc1ccc(F)c(Cl)c1` returned an RP-LC retention time of 664 s.
